From patent US6833478B2 (priority 2001, dated 2004)
Structures can show the parent of a compound that is named as a salt.

Experiment: Volume of water needed to dissolve
Type: physicochemical
Details: 1 mmole (782 mg)
Text: Evidently, dinitramide ion quenches the fluorescence of protonated quinine.

With `C=C[C@H]1C[N@@]2CC[C@H]1C[C@H]2[C@H](O)c1ccnc2ccc(OC)cc12` [quinine sulfate] the “water required to dissolve” value was 900 mL.
